This passage reports Papp results from US20230096766A1, “AMINO ACID HAVING FUNCTIONAL GROUP CAPABLE OF INTERMOLECULAR HYDROGEN BONDING, PEPTIDE COMPOUND CONTAINING SAME AND METHOD FOR PRODUCTION THEREOF” (Chugai Seiyaku Kabushiki Kaisha, priority 2018, published 2023).

Structures are written as SMILES. *1 amine or outer side, *2 acyl side, *3 side chain or, on linkers, in order; H or OH if unused. Where a SMILES comes first, the peptide text is derived from it. Bridges are numbered along the chain shown (N, C = ends). [ ]: non-standard residue; d: D form. The star is where a group is joined. ξ: configuration not given here. Phe(3-OMe,4-CONHMe) = CNC(=O)c1ccc(C[C@H](N)C(=O)O)cc1OC; X15 = CCCCN(CC(=O)C(C)[C@@H](CC(C)C)C(=O)[*:2])[*:1]; NMeAbu(4-morpholino) = CN[C@@H](CCN1CCOCC1)C(=O)O; CH2(1,2,4-oxadiazolon-3-yl) = O=c1[nH]c(C*)no1; NMePhe(3-Cl) = CN[C@@H](Cc1cccc(Cl)c1)C(=O)O; Ethyl(2-morpholino) = C1CN(CC*)CCO1; NMeF = CN[C@@H](Cc1ccccc1)C(=O)O; NMeGABA = CN(CCCC(=O)[*:2])[*:1]; NMeI = CC[C@H](C)[C@H](NC)C(=O)O; NMeL = CN[C@@H](CC(C)C)C(=O)O; Butyl(3R-OH) = C[C@@H](O)CC*; Propyl(2R-OH) = C[C@@H](O)C*; Butyl(3S-OH) = C[C@H](O)CC*; NMeV = CN[C@H](C(=O)O)C(C)C; NMeAbu = CC[C@H](NC)C(=O)O; NMeA = CN[C@@H](C)C(=O)O; Piperidide = C1CCN(*)CC1; NBuGly = CCCCNCC(=O)O; Propyl(3-OH) = OCCC*; ξS = NC(CO)C(=O)O; Sar = CNCC(=O)O; tBu = CC(C)(C)*

The first data set in a line: Membrane permeability test of cyclic peptides (Caco-2, modified/improved method of WO 2018/124162). To be noted: human, Caco-2, Caco-2 (cm/sec), membrane permeability of cyclic peptides, Caco-2. In general terms: Passage across Caco-2 layers is used to estimate intestinal permeability.
The Papp is a coefficient for how fast a substance crosses the barrier. The low end stands for slow passage, the high end for fast passage. The compound `CC[C@H](C)[C@H]1C(=O)N[C@@H]([C@@H](C)O)C(=O)N(C)CC(=O)N(C)[C@@H](CC)C(=O)N[C@H](C(=O)N2CCCCC2)CC(=O)N(C)[C@@H](CC(C)C)C(=O)N[C@@H](Cc2ccc(C(=O)NC)c(OC)c2)C(=O)N(C)[C@@H](CC(C)C)C(=O)N(C)[C@@H](Cc2ccccc2)C(=O)N[C@@H](CC(C)C)C(=O)N(C)[C@@H](CC(C)C)C(=O)N1C` [AP31] ([NMeL][Phe(3-OMe,4-CONHMe)][NMeL][NMeF]L[NMeL][NMeI]T[Sar][NMeAbu]D-Piperidide; lactam N-11) came in with a Papp of 5.2 nm/s. Same read-out and setting: the result for `CCCCN1CC(=O)N(C)[C@@H](CC(C)C)C(=O)NC(COCc2noc(=O)[nH]2)C(=O)N(C)[C@@H](CC(C)C)C(=O)N(C)[C@@H](CC(C)C)C(=O)N[C@H](C(=O)N2CCCCC2)CC(=O)N[C@H](C(C)C)C(=O)N(C)[C@@H](Cc2ccccc2)C(=O)N[C@@H](CC(C)C)C(=O)N(C)[C@@H](CC(C)C)C(=O)N[C@@H]([C@@H](C)O)C1=O` (stereo partly drawn) [AP43] ([dV][NMeF]L[NMeL]T[NBuGly][NMeL][ξS](CH2(1,2,4-oxadiazolon-3-yl))[NMeL][NMeL]D-Piperidide; lactam N-11) reads 8.2 nm/s. Still for that read-out and setting: the result for `CCCCN1CC(=O)C(C)[C@@H](CC(C)C)C(=O)NC(COCc2noc(=O)[nH]2)C(=O)N(C)[C@@H](Cc2ccccc2)C(=O)N(C)[C@@H](CC(C)C)C(=O)N[C@H](C(=O)N2CCCCC2)CC(=O)N[C@H](CC(C)C)C(=O)N(C)[C@@H](CC(C)C)C(=O)N[C@@H]([C@@H](C)CC)C(=O)N(C)[C@@H](CC(C)C)C(=O)N[C@@H]([C@@H](C)O)C1=O` (stereo partly drawn) [AP44] ([dL][NMeL]I[NMeL]T[X15][ξS](CH2(1,2,4-oxadiazolon-3-yl))[NMeF][NMeL]D-Piperidide; lactam N-10) reads 3 nm/s; that for `CCCCN1CC(=O)N(C)[C@@H](CC(C)C)C(=O)N[C@@H](COC(C)(C)C)C(=O)N(C)[C@@H](CC(C)C)C(=O)N(C)[C@@H](CC(C)C)C(=O)N[C@H](C(=O)N2CCCCC2)CC(=O)N[C@H](CC(C)C)C(=O)N(C)[C@@H](Cc2ccccc2)C(=O)NC(COCc2noc(=O)[nH]2)C(=O)N(C)[C@@H](CC(C)C)C(=O)N[C@@H]([C@@H](C)O)C1=O` (stereo partly drawn) [AP45] ([dL][NMeF][ξS](CH2(1,2,4-oxadiazolon-3-yl))[NMeL]T[NBuGly][NMeL]S(tBu)[NMeL][NMeL]D-Piperidide; lactam N-11), 14 nm/s.

In turn, `CC[C@H](C)[C@@H]1NC(=O)[C@H](CC(C)C)N(C)C(=O)CCCN(C)C(=O)C[C@@H](C(=O)N2CCCCC2)NC(=O)[C@H](CC(C)C)N(C)C(=O)[C@H](CC(C)C)N(C)C(=O)[C@H]([C@@H](C)O)NC(=O)[C@H](CC(C)C)N(C)C(=O)C(COCc2noc(=O)[nH]2)NC(=O)[C@H](CC(C)C)N(C)C(=O)[C@H](Cc2cccc(Cl)c2)N(C)C1=O` (stereo partly drawn) [AP46] ([NMeGABA][NMeL]I[NMePhe(3-Cl)][NMeL][ξS](CH2(1,2,4-oxadiazolon-3-yl))[NMeL]T[NMeL][NMeL]D-Piperidide; lactam N-11) had an apparent permeability coefficient (Papp) of 2.2 nm/s. Same read-out and setting: the result for `CCCCN1CC(=O)N(C)[C@@H](CC(C)C)C(=O)N[C@H](C(=O)N2CCCCC2)CC(=O)N(C)[C@@H](CC)C(=O)N[C@@H](CC(C)C)C(=O)N(C)[C@@H](CC(C)C)C(=O)N(C)[C@@H](Cc2ccccc2)C(=O)NC(COCc2noc(=O)[nH]2)C(=O)N(C)[C@@H](CC(C)C)C(=O)N(C)[C@@H](CC(C)C)C(=O)N[C@@H]([C@@H](C)O)C1=O` (stereo partly drawn) [AP47] ([NMeAbu]L[NMeL][NMeF][ξS](CH2(1,2,4-oxadiazolon-3-yl))[NMeL][NMeL]T[NBuGly][NMeL]D-Piperidide; lactam N-11) reads 53 nm/s; that for `CCCCN1CC(=O)N(C)[C@@H](CC(C)C)C(=O)N[C@H](C(=O)N2CCCCC2)CC(=O)N(C)[C@@H](CC(C)C)C(=O)NC(COCc2noc(=O)[nH]2)C(=O)N(C)[C@@H](CC(C)C)C(=O)N(C)[C@@H](CC(C)C)C(=O)N[C@@H](C(C)C)C(=O)N(C)[C@@H](Cc2ccccc2)C(=O)N(C)[C@@H](CC(C)C)C(=O)N[C@@H]([C@@H](C)O)C1=O` (stereo partly drawn) [AP48] ([NMeL][ξS](CH2(1,2,4-oxadiazolon-3-yl))[NMeL][NMeL]V[NMeF][NMeL]T[NBuGly][NMeL]D-Piperidide; lactam N-11), 4 nm/s. The same measure, in the same setting: the result for `CCCCN1CC(=O)N(C)[C@@H](Cc2cccc(Cl)c2)C(=O)N(C)[C@@H](CC(C)C)C(=O)N[C@@H]([C@@H](C)CC)C(=O)N(C)[C@@H](CC(C)C)C(=O)N[C@H](C(=O)N2CCCCC2)CC(=O)N(C)CC(=O)N(C)[C@@H](CC(C)C)C(=O)NC(COCc2noc(=O)[nH]2)C(=O)N(C)[C@@H](CC(C)C)C(=O)N[C@@H]([C@@H](C)O)C1=O` (stereo partly drawn) [AP49] ([Sar][NMeL][ξS](CH2(1,2,4-oxadiazolon-3-yl))[NMeL]T[NBuGly][NMePhe(3-Cl)][NMeL]I[NMeL]D-Piperidide; lactam N-11) reads 3.3 nm/s; that for `CCCCN1CC(=O)N(C)[C@@H](Cc2cccc(Cl)c2)C(=O)N(C)[C@@H](CC(C)C)C(=O)N[C@@H](COCc2noc(=O)[nH]2)C(=O)N(C)[C@@H](CC(C)C)C(=O)N[C@H](C(=O)N2CCCCC2)CC(=O)N(C)CC(=O)N(C)[C@@H](CC(C)C)C(=O)N[C@@H]([C@@H](C)CC)C(=O)N(C)[C@@H](CC(C)C)C(=O)N[C@@H]([C@@H](C)O)C1=O` [AP50] ([Sar][NMeL]I[NMeL]T[NBuGly][NMePhe(3-Cl)][NMeL]S(CH2(1,2,4-oxadiazolon-3-yl))[NMeL]D-Piperidide; lactam N-11), 1.1 nm/s.

`CC[C@H](C)[C@@H]1NC(=O)[C@H](CC(C)C)N(C)C(=O)[C@H](COC(C)(C)C)NC(=O)[C@H](Cc2ccccc2)N(C)C(=O)[C@H](Cc2ccccc2)N(C)C(=O)[C@H](COC[C@@H](C)O)NC(=O)[C@H](CC(C)C)N(C)C(=O)CCCN(C)C(=O)C[C@@H](C(=O)N2CCCCC2)NC(=O)[C@H](CC(C)C)N(C)C(=O)[C@H](CC(C)C)N(C)C1=O` [AP84] ([NMeGABA][NMeL]S(Propyl(2R-OH))[NMeF][NMeF]S(tBu)[NMeL]I[NMeL][NMeL]D-Piperidide; lactam N-11) registered a Papp of 5.8 nm/s. On the same count and under the same terms, the result for `CC(C)C[C@@H]1NC(=O)[C@H](Cc2ccccc2)N(C)C(=O)[C@H](CC(C)C)N(C)C(=O)[C@H](COCCCO)NC(=O)[C@H](CC(C)C)N(C)C(=O)C[C@@H](C(=O)N2CCCCC2)NC(=O)[C@H](CC(C)C)N(C)C(=O)CN(C)C(=O)[C@H]([C@@H](C)O)NC(=O)[C@H](CC(C)C)N(C)C(=O)[C@H](Cc2cccc(Cl)c2)N(C)C1=O` [AP97] ([NMeL]S(Propyl(3-OH))[NMeL][NMeF]L[NMePhe(3-Cl)][NMeL]T[Sar][NMeL]D-Piperidide; lactam N-11) reads 2.1 nm/s; that for `CC(C)C[C@@H]1NC(=O)[C@H](C(C)C)N(C)C(=O)C[C@@H](C(=O)N2CCCCC2)NC(=O)[C@H](CC(C)C)N(C)C(=O)CN(C)C(=O)[C@H]([C@@H](C)O)NC(=O)[C@H](C(C)C)N(C)C(=O)[C@H](Cc2ccccc2)N(C)C(=O)C(COCC[C@H](C)O)NC(=O)[C@H](Cc2ccccc2)N(C)C(=O)[C@H](CC(C)C)N(C)C1=O` (stereo partly drawn) [AP104] ([NMeV]L[NMeL][NMeF][ξS](Butyl(3S-OH))[NMeF][NMeV]T[Sar][NMeL]D-Piperidide; lactam N-11), 29 nm/s. Same read-out and setting: the result for `CCCCN1CC(=O)N(C)[C@@H](CC(C)C)C(=O)N[C@H](C(=O)N2CCCCC2)CC(=O)N(C)[C@@H](C(C)C)C(=O)N[C@@H](CC(C)C)C(=O)N(C)[C@@H](CC(C)C)C(=O)N(C)[C@@H](Cc2ccccc2)C(=O)N[C@@H](COCC[C@H](C)O)C(=O)N(C)[C@@H](Cc2ccccc2)C(=O)N(C)[C@@H](C(C)C)C(=O)N[C@@H]([C@@H](C)O)C1=O` [AP107] ([NMeV]L[NMeL][NMeF]S(Butyl(3S-OH))[NMeF][NMeV]T[NBuGly][NMeL]D-Piperidide; lactam N-11) reads 9.3 nm/s; that for `CC(C)C[C@@H]1NC(=O)[C@H](C(C)C)N(C)C(=O)C[C@@H](C(=O)N2CCCCC2)NC(=O)[C@H](CC(C)C)N(C)C(=O)CN(C)C(=O)[C@H]([C@@H](C)O)NC(=O)[C@H](C(C)C)N(C)C(=O)[C@H](Cc2ccccc2)N(C)C(=O)[C@H](COCC[C@@H](C)O)NC(=O)[C@H](Cc2ccccc2)N(C)C(=O)[C@H](CC(C)C)N(C)C1=O` [AP113] ([NMeV]L[NMeL][NMeF]S(Butyl(3R-OH))[NMeF][NMeV]T[Sar][NMeL]D-Piperidide; lactam N-11), 17 nm/s.

A short description of the next data set: in vitro. To be noted: human, Caco-2, Caco-2.
The compound `CCCCN1CC(=O)N(C)[C@@H](CCN2CCOCC2)C(=O)N[C@H](C(=O)N2CCCCC2)CC(=O)N(C)[C@@H](C)C(=O)N[C@@H](CC(C)C)C(=O)N(C)[C@@H](CC(C)C)C(=O)N(C)[C@@H](Cc2ccccc2)C(=O)N[C@@H](CC(C)C)C(=O)N(C)[C@@H](Cc2ccccc2)C(=O)N(C)[C@@H](CC(C)C)C(=O)N[C@@H]([C@@H](C)O)C1=O` [pd454] ([NMeA]L[NMeL][NMeF]L[NMeF][NMeL]T[NBuGly][NMeAbu(4-morpholino)]D-Piperidide; lactam N-11) yielded a Papp of 12 nm/s. In turn, `CCCCN1CC(=O)N(C)[C@@H](CC(C)C)C(=O)N[C@H](C(=O)N2CCCCC2)CC(=O)N(C)[C@@H](CC)C(=O)NC(COCCN2CCOCC2)C(=O)N(C)[C@@H](CC(C)C)C(=O)N(C)[C@@H](CC)C(=O)N[C@@H](C(C)C)C(=O)N(C)[C@@H](Cc2ccccc2)C(=O)N(C)[C@@H](CC(C)C)C(=O)N[C@@H]([C@@H](C)O)C1=O` (stereo partly drawn) [pd483] ([NMeAbu][ξS](Ethyl(2-morpholino))[NMeL][NMeAbu]V[NMeF][NMeL]T[NBuGly][NMeL]D-Piperidide; lactam N-11) gave a Papp of 19 nm/s. For `CCCCN1CC(=O)N(C)[C@@H](Cc2ccccc2)C(=O)N(C)[C@@H](CC(C)C)C(=O)N[C@@H](C(C)C)C(=O)N(C)[C@@H](CC(C)C)C(=O)N[C@H](C(=O)N2CCCCC2)CC(=O)N(C)CC(=O)N(C)[C@@H](CC(C)C)C(=O)NC(COCCN2CCOCC2)C(=O)N(C)[C@@H](CC(C)C)C(=O)N[C@@H]([C@@H](C)O)C1=O` (stereo partly drawn) [pd484] ([Sar][NMeL][ξS](Ethyl(2-morpholino))[NMeL]T[NBuGly][NMeF][NMeL]V[NMeL]D-Piperidide; lactam N-11), the Papp was determined as 18 nm/s.
